Our source for the T/C values is PubChem BioAssay AID200 (DTP/NCI, 2004).

Values joined by “and” are separate entries in the source; they are usually repeats but may differ in a detail not shown here. Equal entries are not always repeated. Toxic doses and inconclusive results are not listed.

This assay concerns B6C3F1 mice, B16 melanoma ip, median survival T/C. Put plainly: NCI In Vivo Anticancer Drug Screen. Data for tumor model B16 Melanoma (intraperitoneal) in B6C3F1 mice. Conditions: endpoint: median survival time, higher = longer survival. Summed up:
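Transplantable tumor in mice; treated vs vehicle control groups; survival or tumor size measured; value = T/C ratio.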

[1] abbreviates: dose: 6.25 mg/kg/injection, schedule: Q01DX009 (ip), vehicle: saline with Tween-80.
The mark [2] stands for this setting: dose: 12.5 mg/kg/injection, schedule: Q01DX009 (ip), vehicle: saline with Tween-80.
[3] abbreviates: dose: 25.0 mg/kg/injection, schedule: Q01DX009 (ip), vehicle: saline with Tween-80.
[4] abbreviates: dose: 50.0 mg/kg/injection, schedule: Q01DX009 (ip), vehicle: saline with Tween-80.
Setting [5] is: dose: 100.0 mg/kg/injection, schedule: Q01DX009 (ip), vehicle: saline with Tween-80.
Setting [6] is: dose: 2.5 mg/kg/injection, schedule: Q01DX009 (ip), vehicle: saline.
Where [7] appears, read: dose: 5.0 mg/kg/injection, schedule: Q01DX009 (ip), vehicle: saline.
[8] abbreviates: dose: 10.0 mg/kg/injection, schedule: Q01DX009 (ip), vehicle: saline.

Consider `NC(CO)(CO)CO`, for which the T/C is, setting by setting: (dose: 200.0 mg/kg/injection, schedule: Q01DX009 (ip), vehicle: saline) 104 % of control; (dose: 200.0 mg/kg/injection, schedule: Q12HX018 (ip), vehicle: saline) 102 % of control; (dose: 400.0 mg/kg/injection, schedule: Q01DX009 (ip), vehicle: saline) 102 % of control; (dose: 400.0 mg/kg/injection, schedule: Q12HX018 (ip), vehicle: saline) 102 % of control; (dose: 800.0 mg/kg/injection, schedule: Q01DX009 (ip), vehicle: saline) 98 % of control; (dose: 800.0 mg/kg/injection, schedule: Q12HX018 (ip), vehicle: saline) 106 % of control. In addition, the T/C was 98 % of control (dose: 1600.0 mg/kg/injection, schedule: Q01DX009 (ip), vehicle: saline) and 101 % of control (dose: 1600.0 mg/kg/injection, schedule: Q12HX018 (ip), vehicle: saline).
Take `CC(=O)OCC1C(=O)OCC1C(=O)N1Cc2cc3ccccc3nc2C1` (stereo unspecified): the T/C was 115 % of control (dose: 8.0 mg/kg/injection, schedule: Q01DX009 (ip), vehicle: saline with Tween-80); 95 % of control (dose: 16.0 mg/kg/injection, schedule: Q01DX009 (ip), vehicle: saline with Tween-80); 100 % of control (dose: 32.0 mg/kg/injection, schedule: Q01DX009 (ip), vehicle: saline with Tween-80); 91 % of control (dose: 64.0 mg/kg/injection, schedule: Q01DX009 (ip), vehicle: saline with Tween-80); 88 % of control (dose: 128.0 mg/kg/injection, schedule: Q01DX009 (ip), vehicle: saline with Tween-80).
Regarding `c1ccc2c(NCCCCCCNc3c4ccccc4nc4ccccc34)c3ccccc3nc2c1`, the T/C reads like this: (dose: 0.62 mg/kg/injection, schedule: Q01DX009 (ip), vehicle: Klucel (hydroxypropylcellulose) (HPC)) 116 % of control; (dose: 1.25 mg/kg/injection, schedule: Q01DX009 (ip), vehicle: water) 111 % of control and 116 % of control; (dose: 1.58 mg/kg/injection, schedule: Q01DX009 (ip), vehicle: Klucel (hydroxypropylcellulose) (HPC)) 154 % of control; (dose: 2.37 mg/kg/injection, schedule: Q01DX009 (ip), vehicle: Klucel (hydroxypropylcellulose) (HPC)) 179 % of control; (dose: 2.5 mg/kg/injection, schedule: Q01DX009 (ip), vehicle: Klucel (hydroxypropylcellulose) (HPC)) 151 % of control; (dose: 2.5 mg/kg/injection, schedule: Q01DX009 (ip), vehicle: water) 112 % of control and 122 % of control. The T/C (dose: 5.0 mg/kg/injection, schedule: Q01DX009 (ip), vehicle: Klucel (hydroxypropylcellulose) (HPC)) was 189 % of control; the T/C (dose: 5.0 mg/kg/injection, schedule: Q01DX009 (ip), vehicle: water) is 123 % of control; the T/C (dose: 5.33 mg/kg/injection, schedule: Q01DX009 (ip), vehicle: Klucel (hydroxypropylcellulose) (HPC)) is 213 % of control; the T/C (dose: 8.0 mg/kg/injection, schedule: Q01DX009 (ip), vehicle: Klucel (hydroxypropylcellulose) (HPC)) was 199 % of control; the T/C (dose: 10.0 mg/kg/injection, schedule: Q01DX009 (ip), vehicle: Klucel (hydroxypropylcellulose) (HPC)) was 200 % of control; the T/C (dose: 10.0 mg/kg/injection, schedule: Q01DX009 (ip), vehicle: water) was 153 % of control. Moreover, the T/C (dose: 12.0 mg/kg/injection, schedule: Q01DX009 (ip), vehicle: Klucel (hydroxypropylcellulose) (HPC)) was 190 % of control; the T/C (dose: 20.0 mg/kg/injection, schedule: Q01DX009 (ip), vehicle: Klucel (hydroxypropylcellulose) (HPC)) was 206 % of control; the T/C (dose: 20.0 mg/kg/injection, schedule: Q01DX009 (ip), vehicle: water) was 162 % of control.
On to `Nc1nc(-c2ccccc2)c(N=O)c(=O)[nH]1`, for which the T/C is 96 % of control (dose: 14.0 mg/kg/injection, schedule: Q01DX009 (ip), vehicle: saline with Tween-80); 94 % of control (dose: 28.0 mg/kg/injection, schedule: Q01DX009 (ip), vehicle: saline with Tween-80); 91 % of control (dose: 56.0 mg/kg/injection, schedule: Q01DX009 (ip), vehicle: saline with Tween-80); 101 % of control (dose: 112.0 mg/kg/injection, schedule: Q01DX009 (ip), vehicle: saline with Tween-80).
In the case of `N#Cc1nc(C#N)c(Sc2ccccc2)c(Sc2ccccc2)c1Sc1ccccc1`, the T/C reads like this: (dose: 3.12 mg/kg/injection, schedule: Q01DX009 (ip), vehicle: saline with Tween-80) 104 % of control; (dose: 3.13 mg/kg/injection, schedule: Q01DX009 (ip), vehicle: saline with Tween-80) 101 % of control; under setting [1], 98 % of control and 102 % of control; under setting [2], 93 % of control and 94 % of control; under setting [3], 101 % of control; under setting [4], 97 % of control and 98 % of control. The T/C under setting [5] is 101 % of control and 104 % of control.
On to `O=S(CCCl)CCCl`, for which the T/C is 96 % of control and 107 % of control (dose: 6.25 mg/kg/injection, schedule: Q01DX009 (ip), vehicle: Klucel (hydroxypropylcellulose) (HPC)); 98 % of control and 101 % of control (dose: 12.5 mg/kg/injection, schedule: Q01DX009 (ip), vehicle: Klucel (hydroxypropylcellulose) (HPC)); 98 % of control and 107 % of control (dose: 25.0 mg/kg/injection, schedule: Q01DX009 (ip), vehicle: Klucel (hydroxypropylcellulose) (HPC)); 89 % of control and 96 % of control (dose: 50.0 mg/kg/injection, schedule: Q01DX009 (ip), vehicle: Klucel (hydroxypropylcellulose) (HPC)).
In the case of `O=[n+]1c2ccccc2n([O-])c2cc(Cl)ccc21`, the T/C runs as follows: under setting [2], 111 % of control; under setting [3], 109 % of control; under setting [4], 116 % of control; under setting [5], 124 % of control.
On to `COc1cc2c3c(cccc3c1)C(=O)N(CCN(C)C)C2=O`, for which the T/C is 119 % of control and 95 % of control (dose: 5.0 mg/kg/injection, schedule: Q01DX009 (ip), vehicle: saline with Tween-80); 115 % of control and 100 % of control (dose: 10.0 mg/kg/injection, schedule: Q01DX009 (ip), vehicle: saline with Tween-80); 110 % of control and 100 % of control and 105 % of control (dose: 20.0 mg/kg/injection, schedule: Q01DX009 (ip), vehicle: saline with Tween-80); 109 % of control and 121 % of control and 104 % of control (dose: 40.0 mg/kg/injection, schedule: Q01DX009 (ip), vehicle: saline with Tween-80); 107 % of control (dose: 80.0 mg/kg/injection, schedule: Q01DX009 (ip), vehicle: saline with Tween-80).
`C=C(C)[C@H]1CN[C@H](C(=O)O)[C@H]1CC(=O)O`: the T/C was 96 % of control (dose: 0.31 mg/kg/injection, schedule: Q01DX009 (ip), vehicle: saline); 100 % of control (dose: 0.62 mg/kg/injection, schedule: Q01DX009 (ip), vehicle: saline); 91 % of control (dose: 1.25 mg/kg/injection, schedule: Q01DX009 (ip), vehicle: saline); 100 % of control under setting [6]; 90 % of control under setting [7]; 102 % of control (dose: 6.25 mg/kg/injection, schedule: Q01DX009 (ip), vehicle: saline). In addition, the T/C reads like this: under setting [8], 86 % of control; (dose: 12.5 mg/kg/injection, schedule: Q01DX009 (ip), vehicle: saline) 101 % of control; (dose: 25.0 mg/kg/injection, schedule: Q01DX009 (ip), vehicle: saline) 93 % of control.
For the compound `CCCCCCCCCCCCCCCCN(CC)CC`, the T/C is, setting by setting: under setting [6], 99 % of control; under setting [7], 97 % of control; under setting [8], 90 % of control.
Take `S=C(NCNC(=S)c1ccncc1)c1ccncc1`: the T/C is 102 % of control under setting [4]; 91 % of control under setting [5]; 100 % of control (dose: 200.0 mg/kg/injection, schedule: Q01DX009 (ip), vehicle: saline with Tween-80); 104 % of control (dose: 400.0 mg/kg/injection, schedule: Q01DX009 (ip), vehicle: saline with Tween-80).
As for `C=C1C(=O)OC2CC(C)C3C4OC4C(O)C3(C)C(O)C12` (stereo unspecified), the T/C (dose: 0.4 mg/kg/injection, schedule: Q01DX009 (ip), vehicle: saline) is 104 % of control; the T/C (dose: 0.8 mg/kg/injection, schedule: Q01DX009 (ip), vehicle: saline) was 110 % of control; the T/C (dose: 1.56 mg/kg/injection, schedule: Q01DX009 (ip), vehicle: saline) is 108 % of control; the T/C (dose: 3.13 mg/kg/injection, schedule: Q01DX009 (ip), vehicle: saline) was 124 % of control.
Regarding `CCCCC(=O)OCC1OC(n2cnc3c(=S)nc[nH]c32)C(OC(=O)CCCC)C1OC(=O)CCCC` (stereo unspecified), the T/C was 102 % of control under setting [1], 105 % of control under setting [2], 108 % of control under setting [3] and 92 % of control under setting [4].
